These results are taken from US8618043B2, “Use of ADNF polypeptides for treating anxiety and depression” (Ramot at Tel-Aviv University, priority 2003, dated 2013).

For one data set, the system named is ND-Swiss male mice. Put plainly: Morris water maze, chronic intranasal NAP. Format: in vivo, mouse. Conditions: eight-month-old mice. On the procedure:
ND-Swiss male mice (8 months old; Harlan Sprague Dawley, Inc., Indianapolis, Ind.) were kept under a 12:12 hour light/dark regimen, with food and water available at all times. The mice were kept in the animal care facility of the Tel Aviv University in compliance with institutional and state guidelines.
NAP was custom synthesized by Peninsula (Bachem, Torrance, Calif., USA) or Peptide Technologies (Bethesda, Md., USA). The peptide was dissolved in a solution DD, in which each milliliter included 7.5 mg NaCl, 1.7 mg citric acid monohydrate, 3 mg disodium phosphate dihydrate and 0.2 mg benzalkonium chloride solution (50%). The peptide was administered intranasally every day, 5 days a week, 0.5 μg in 10 μl for each mouse, half the portion in each nostril. The control group received 10 μl of the inert carrier per day. The mice were treated at least 1 h prior to the daily experiment (water maze).
Mice were also subjected to two daily tests in a Morris water maze (diameter 90 cm; depth, 20 cm), as described in WO 01/092333, incorporated herein by reference. Latency to reach the hidden platform over a 90 second test period was recorded. The experiment was performed for 4-5 consecutive days. […] The platform was then removed from the maze and the time spent by the mice in the pool's quarter where the platform used to be was recorded (for 90 seconds). […]

The conditions of data set [1]: in vivo; cited from earlier work.
For data set [2] the following is noted: cited from earlier work.
The test system of data set [3] is astrocytes from newborn rat cerebral cortex. Description: Confocal microscopy of microtubule re-organization. Format: cell-based. As for the experimental part: Rat cerebral cortical cells from newborn pups were prepared as before (Bassan et al., 1999). All procedures performed in these studies were conducted in accordance with the Tel Aviv University regulations and were approved by the Animal Care and Use Committee of Tel Aviv University. The use of animals was not excessive and no animal suffering occurred. In short, cerebral cortical tissue was incubated for 20 minutes at 37° C. in Hanks' balanced salt solution+15 mM HEPES, pH 7.3 containing trypsin B (Biological Industries, Beit Haemek, Israel). Dissociated cerebral cortical cells were added to the culture dish with 5% horse serum in DMEM. Cells were plated in a ratio of 1 cortex per two 75 cm^2 cell culture flasks (polystyrene, Corning, N.Y.). The medium was changed 1 day after plating. For astrocyte cultures, cells were split after 10 incubation days and plated in 24 well plates (each flask into 60 wells containing microscope cover glasses (12 mm diameter) and 250 μl medium). Cells were then incubated two additional weeks. For mixed neuroglial cultures, dissociated cerebral cortical cells were plated on a bed of astrocytes 2 weeks after the split and incubated in neuron-specific medium as before (Bassan et al., 1999; Brenneman, & Gozes, J. Clin. Invest. 97:2299-2307 (1996); based on Forsythe & Westbrook, J. Physiol. 396:515-533 (1988)). […]

A further data set deals with Bovine MAP-rich tubulin. Put plainly: Microtubule assembly, absorbance at 350 nm. Conditions: negative control peptide, concentration not given. It is filed as biochemical. On the procedure:
A microtubule assembly kit CytoDYNAMIX Screen 01(CDS01) was obtained from Cytoskeleton (Denver, Colo.). Bovine MAP-rich tubulin (HTS01) was resuspended in G-PEM buffer (80 mM PIPES pH 6.9, 1 mM MgCl, 1 mM EGTA and 1 mM GTP) and subjected to polymerization at 37° C. The reaction was performed in 96-well plate. Assembly was monitored with a spectrophotometer SPECTRAmax 190 (Molecular Devices, Sunnyvale, Calif.) employing continuous recording at 350 nm.

Regarding `CC[C@H](C)[C@H](NC(=O)[C@H](CO)NC(=O)[C@@H](NC(=O)[C@@H]1CCCN1C(=O)[C@H](C)NC(=O)[C@@H](N)CC(N)=O)C(C)C)C(=O)N1CCC[C@H]1C(=O)N[C@@H](CCC(N)=O)C(=O)O` [NAP], in the data set on ND-Swiss male mice, the “time to reach the visible platform (motor behavior)” value is on record as 24+7.6. For the same compound, in data set [1], the “adverse side effects in toxicology studies” value is listed as “no adverse side effects”. Also, in data set [2] (following intranasal administration), the brain penetration result is recorded as “brain penetration”. Moreover, the “crossing of the blood-brain barrier” value in data set [2] (radiolabeled peptides, intranasal, intravenous or intraperitoneal administration) is on record as “can cross the blood-brain barrier”.
Regarding VLGGGSALL [C2], the “microtubule re-organization / microtubule-associated morphological change” value in data set [3] is listed as “did not induce”. In addition, the “effect on microtubule assembly” value in the data set with Bovine MAP-rich tubulin is “did not affect”.
